Data reported in ChEMBL document CHEMBL4602737, “Structure-Guided Identification of DNMT3B Inhibitors” (ACS Med Chem Lett, 2020).

Key:
[1] = target: T1, DNA (cytosine-5)-methyltransferase 3B (Homo sapiens, UniProt Q9UBC3); assay: Inhibition of human recombinant DNMT3B expressed in baculovirus infected insect cells using CpG site containing internally quenched hairpin oligonucleotide DNA substrate and SAM incubated for 30 mins by kinetic fluorogenic assay
[2] = target: DNA (cytosine-5)-methyltransferase 1 (Homo sapiens, UniProt P26358); assay: Inhibition of human recombinant DNMT1 expressed in baculovirus infected insect cells using CpG site containing internally quenched hairpin oligonucleotide DNA substrate and SAM incubated for 30 mins by kinetic fluorogenic assay
[3] = Toxicity in mouse; format: organism-based; conditions: in vivo
[4] = Cytotoxicity in African green monkey Vero cells assessed as reduction in cell viability; format: cell-based; conditions: chlorocebus sabaeus
[5] = target: T1, DNA (cytosine-5)-methyltransferase 3B; assay: Inhibition of human recombinant DNMT3B expressed in baculovirus infected insect cells by DRONE assay

Sequence of DNA (cytosine-5)-methyltransferase 1 (P26358 whole entry): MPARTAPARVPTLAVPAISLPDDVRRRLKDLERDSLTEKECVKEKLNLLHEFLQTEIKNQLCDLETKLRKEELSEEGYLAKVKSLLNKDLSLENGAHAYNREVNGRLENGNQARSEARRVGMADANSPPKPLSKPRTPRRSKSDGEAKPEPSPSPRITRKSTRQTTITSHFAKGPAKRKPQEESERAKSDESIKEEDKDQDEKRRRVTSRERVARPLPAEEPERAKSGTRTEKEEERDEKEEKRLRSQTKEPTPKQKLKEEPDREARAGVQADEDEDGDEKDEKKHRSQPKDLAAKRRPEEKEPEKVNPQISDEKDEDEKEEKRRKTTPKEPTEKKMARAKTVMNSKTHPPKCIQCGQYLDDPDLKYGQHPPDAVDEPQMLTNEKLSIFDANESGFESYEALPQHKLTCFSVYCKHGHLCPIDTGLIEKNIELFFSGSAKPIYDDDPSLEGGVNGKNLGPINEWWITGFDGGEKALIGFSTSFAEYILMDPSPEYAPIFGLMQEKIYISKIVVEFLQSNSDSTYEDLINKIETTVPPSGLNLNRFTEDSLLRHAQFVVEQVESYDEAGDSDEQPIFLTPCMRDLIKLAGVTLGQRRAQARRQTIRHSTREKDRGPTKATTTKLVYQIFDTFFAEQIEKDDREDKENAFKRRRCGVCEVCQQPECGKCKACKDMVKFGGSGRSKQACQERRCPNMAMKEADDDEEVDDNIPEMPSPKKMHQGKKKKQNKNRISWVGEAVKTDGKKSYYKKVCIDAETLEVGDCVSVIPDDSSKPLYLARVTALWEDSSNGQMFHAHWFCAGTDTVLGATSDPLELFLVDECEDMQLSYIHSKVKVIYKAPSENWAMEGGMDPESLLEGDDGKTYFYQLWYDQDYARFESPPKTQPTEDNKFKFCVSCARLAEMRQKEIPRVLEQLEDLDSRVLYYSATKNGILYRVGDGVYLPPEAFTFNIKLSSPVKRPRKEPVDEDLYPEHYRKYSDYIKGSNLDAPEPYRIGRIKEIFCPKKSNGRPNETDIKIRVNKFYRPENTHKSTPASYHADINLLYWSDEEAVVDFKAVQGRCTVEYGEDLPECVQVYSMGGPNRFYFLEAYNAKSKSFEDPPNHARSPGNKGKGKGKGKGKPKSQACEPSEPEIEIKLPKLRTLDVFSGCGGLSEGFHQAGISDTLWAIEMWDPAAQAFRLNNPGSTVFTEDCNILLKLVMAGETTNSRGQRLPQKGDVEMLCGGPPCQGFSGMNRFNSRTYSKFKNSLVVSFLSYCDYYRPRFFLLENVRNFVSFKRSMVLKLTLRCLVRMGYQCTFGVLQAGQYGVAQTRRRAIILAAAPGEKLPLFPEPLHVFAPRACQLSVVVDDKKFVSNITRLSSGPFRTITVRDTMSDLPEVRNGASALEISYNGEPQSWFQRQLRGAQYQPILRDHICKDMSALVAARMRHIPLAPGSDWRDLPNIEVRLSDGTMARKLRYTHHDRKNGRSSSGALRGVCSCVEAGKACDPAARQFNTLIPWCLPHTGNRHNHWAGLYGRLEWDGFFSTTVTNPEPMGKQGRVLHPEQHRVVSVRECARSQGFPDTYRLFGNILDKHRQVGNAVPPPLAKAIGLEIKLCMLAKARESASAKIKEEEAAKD

| IC50 [1] | Compound | further results |
| --- | --- | --- |
| Not Active | CN(Cc1ccc2cc[nH]c2c1)C(=O)CCc1cccc(-c2cc3ccccc3[nH]2)c1 |  |
| Not Active | O=C(CCc1cccc(-c2nc3ccccc3[nH]2)c1)NCc1ccc2[nH]ncc2c1 |  |
| Not Active | CN(Cc1ccc2cn[nH]c2c1)C(=O)CCc1cccc(-c2cc3ccccc3[nH]2)c1 |  |

The remaining lines, values behind:

| Compound | IC50 [1] | further results |
| --- | --- | --- |
| O=C(O)[C@H](Cc1c[nH]c2ccccc12)N1C(=O)c2ccccc2C1=O |  | IC50 ([1]; read-out: IC50): 900 nM |
| CN(Cc1ccc2cc[nH]c2c1)C(=O)CCc1cccc(-c2nc3ccccc3[nH]2)c1 | Not Active |  |
| CN(Cc1ccc2[nH]ccc2c1)C(=O)CCc1cccc(-c2nc3ccccc3[nH]2)c1 | Not Active |  |
| CN(Cc1ccc2[nH]ccc2c1)C(=O)CCc1cccc(-c2cc3ccccc3[nH]2)c1 | Not Active |  |
| O=C(CSc1ncnc2sccc12)N1CCN(Cc2cc(=O)n3ccsc3n2)CC1 |  | IC50 [2]: 27200 nM |
| CN(Cc1ccc2cn[nH]c2c1)C(=O)CCc1cccc(-c2nc3ccccc3[nH]2)c1 | Not Active |  |
| Cc1ccc2c(=O)c(-c3nc(-c4cccc(F)c4)no3)cn(CC(=O)Nc3ccc4c(c3)OCO4)c2n1 |  | IC50 [2]: 28500 nM |
| C[C@@H]1O[C@@H](CC(=O)O)CC2=C1C(=O)c1c(O)cccc1C2=O [NANAFROCIN] |  | LD50 [3]: 28 mg/kg; CC50 [4]: 700 nM; IC50 ([1]; read-out: IC50): 1500 nM; IC50 [5]: 730 nM |
